Reference: article PMC8956739, “A synthetic lipopeptide targeting top-priority multidrug-resistant Gram-negative pathogens” (Nature Communications, 2022)
“And” between values parts separate entries of the source, which are not always exact repeats. Equal values may be shown once.

What was measured:
[1] = tested on: A. baumannii AB5075; experiment: In vitro passaging, emergence of resistance; format: cell-based, Acinetobacter baumannii; details: for OD600: 8 ug/mL
Description: Log-phase cultures (OD600 = 0.5, ~10^8 CFU/mL) of A. baumannii AB5075 were inoculated (1:10, v/v) in 200 μL fresh CaMHB (cation-adjusted Mueller–Hinton broth) containing 2, 8 and 16 μg/mL polymyxin B, colistin, F287, and F365 in a 96-well microplate with 4 biological replicates. The cultures were incubated at 37 °C for 12 h before the next dilution (1:10, v/v) with fresh CaMHB. Successive subculturing was conducted for 7 days.

[2] = tested on: P. aeruginosa ATCC 27853; format: cell-based, Pseudomonas aeruginosa
Summary of the method: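 Susceptibility: microdilution MIC in CaMHB.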

[3] = tested on: P. aeruginosa FADDI-PA025; format: cell-based, Pseudomonas aeruginosa; details: MDR clinical isolate
Summary of the method: (§1)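 Cation-adjusted Mueller–Hinton broth was used with the broth microdilution method to set MICs against clinical isolates. A separate run on P. aeruginosa ATCC 27853 added 10% Survanta® (v/v, 2.5 mg/mL phospholipids) to gauge lung-surfactant binding of polymyxins.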

[4] = tested on: P. aeruginosa FADDI-PA038; format: cell-based, Pseudomonas aeruginosa; details: carbapenem-resistant isolate
Summary of the method: as §1

[5] = tested on: HK-2 cells; experiment: Transcriptomic analysis (RNA-Seq) of kidney cells; format: cell-based, human; details: for logFC, differential gene expression for all genes / log2FC / Fold Change: HK-2 RNA-Seq; for log2FC: Fig. 5f; for Fold Change: Fig. 5e
Description: Human Kidney-2 (HK-2) cells (CRL-2190™, American Type Culture Collection) were treated with 100 μM colistin, F287, F319, and F365 for 24 h. Previous transcriptomic data of HK-2 cells following 24 h treatment with polymyxin B[26] were also employed for comparative bioinformatic analysis. RNA extraction was conducted as described above. Raw reads were aligned to genome GRCh38.94 (Ensembl genome database, http://ftp.ensembl.org/pub/release-94/fasta/homo_sapiens/dna/) using […] and summarized by featureCounts. Differentially expressed genes were determined using limma 3.46.0, with a combination of fold change ≥ 1.5 and FDR (by Benjamini–Hochberg algorithm) adjusted P-value ≤ 0.05 (n = 3). Key regulatory genes of HK-2 were analyzed in the context of signaling network in the Signor 2.0 database. Enrichment analysis of gene differential expression in HK-2 cells was conducted using enrichR 2.1. UpSetR 1.4.0, ComplexHeatmap 2.6.2, circlize 0.4.13 and iGraph 1.2.11 were used for data visualization. Raw data were deposited in the Short Reads Archive database under accession numbers SRR15239061-SRR15239078.

[6] = tested on: wild-type HK-2 cells; experiment: in vitro; format: cell-based, human; details: human, wild-type HK-2 cells (kidney proximal tubular), 24 h
Description: (§2) Fig. 6 Transcriptomic changes in human kidney proximal tubular HK-2 cells following treatments with polymyxin B (PMB), colistin (COL), F287, F319, and F365. a Numbers of differentially expressed genes. Distinctive intersections are color-coded. b Cell viability difference (two-tailed Student’s t-test, n = 4 biologically independent cells, Benjamini–Hochberg adjusted P-values) between wild-type HK-2 and KCNJ16 knockout (KO) cells following 24 h treatment with lipopeptides. n.s., not significant; ^*adjusted P < 0.05, ^**adjusted P < 0.01, ^***adjusted P < 0.001. Data are shown as mean ± s.d. and individual data points. c Extracted transcriptional regulatory network from Signor database with 1-step neighbor constraints (enlarged for detail). Source data are provided as a Source Data file.

[7] = tested on: KCNJ16 knockout HK-2 cells; experiment: Cell viability after 24 h treatment; format: cell-based, human; details: KCNJ16 knockout HK-2 cells, 24 h, Fig. 6b
Description: as §2

## Colistin [reference compound]
[1]
  regrowth observed from day: 4 days
[1]; time 0 h, passage 0, replicates rep1-rep4, raw OD600 (blank OD600 0.125333)
  OD600: 0.152 and 0.143 and 0.147 and 0.146
[1]; time 12 h, passage 1, replicates rep1-rep4, raw OD600 (blank OD600 0.114667)
  OD600: 0.136 and 0.134 and 0.13
[1]; time 24 h, passage 2, replicates rep1-rep4, raw OD600 (blank OD600 0.0956667)
  OD600: 0.095 and 0.089 and 0.087 and 0.091
[1]; time 36 h, passage 3, replicates rep1-rep4, raw OD600 (blank OD600 0.088)
  OD600: 0.088 and 0.087 and 0.085 and 0.091
[1]; time 48 h, passage 4, replicates rep1-rep4, raw OD600 (blank OD600 0.104667)
  OD600: 0.095 and 0.093
[1]; time 60 h, passage 5, replicates rep1-rep4, raw OD600 (blank OD600 0.122333)
  OD600: 0.125 and 0.117 and 0.115 and 0.107
[1]; time 72 h, passage 6, replicates rep1-rep4, raw OD600 (blank OD600 0.095)
  OD600: 0.14 and 0.126 and 0.15
[1]; time 84 h, passage 7, replicates rep1-rep4, raw OD600 (blank OD600 0.091)
  OD600: 0.196 and 0.173 and 0.191 and 0.238
[1]; time 96 h, passage 8, replicates rep1-rep4, raw OD600 (blank OD600 0.0953333)
  OD600: 0.224 and 0.238 and 0.275 and 0.393
[1]; time 108 h, passage 9, replicates rep1-rep4, raw OD600 (blank OD600 0.100667)
  OD600: 0.309 and 0.315 and 0.31 and 0.392
[1]; time 120 h, passage 10, replicates rep1-rep4, raw OD600 (blank OD600 0.0983333)
  OD600: 0.387 and 0.364 and 0.444 and 0.49
[1]; time 132 h, passage 11, replicates rep1-rep4, raw OD600 (blank OD600 0.0843333)
  OD600: 0.344 and 0.355 and 0.395 and 0.414
[1]; time 144 h, passage 12, replicates rep1-rep4, raw OD600 (blank OD600 0.091)
  OD600: 0.477 and 0.464 and 0.465 and 0.416
[1]; time 156 h, passage 13, replicates rep1-rep4, raw OD600 (blank OD600 0.129)
  OD600: 0.339 and 0.382 and 0.394
[1]; time 168 h, passage 14, replicates rep1-rep4, raw OD600 (blank OD600 0.101)
  OD600: 0.344 and 0.379 and 0.374 and 0.394
[1]; 4× MIC, 7-day passaging
  time to emergence of resistance: ≤ 3 days
[1]; 32× MIC
  growth over 7 days: No growth
[2]
  MIC P. aeruginosa ATCC 27853: 0.5 µg/mL
[2]; 10% Survanta vs none
  increase of MIC in the presence of lung surfactant: 8 fold
[2]; P. aeruginosa ATCC 27853, 10% Survanta
  MIC, 10% Survanta: 8 µg/mL
[2]; P. aeruginosa ATCC 27853, no surfactant
  MIC, No Survanta: 1 µg/mL
[3]
  MIC P. aeruginosa FADDI-PA025: 2 µg/mL
[4]
  MIC P. aeruginosa FADDI-PA038: 1 µg/mL
[5]; Geneid ENSG00000223972
  logFC, differential gene expression for all genes: -0.6712
[5]; Geneid ENSG00000227232
  logFC, differential gene expression for all genes: -0.1985
[5]; Geneid ENSG00000233750
  logFC, differential gene expression for all genes: -0.899
[5]; Geneid ENSG00000278267
  logFC, differential gene expression for all genes: -0.3433
[5]; gene ENSG00000017483 SLC38A5
  log2FC: 0.7893
[5]; gene ENSG00000023445 BIRC3
  log2FC: -0.6239
[5]; gene ENSG00000056558 TRAF1
  log2FC: 0.6268
[5]; gene ENSG00000066468 FGFR2
  log2FC: -1.3101
[5]; locus chr1 629640-630683 (ENSG00000225630 by coordinates)
  Fold Change: 0.2606
[5]; locus chr1 632757-633438 (ENSG00000229344 by coordinates)
  Fold Change: 0.2186
[5]; number of differentially expressed genes per peptide, Fig. 6a
  num.of.degs: 1282
[6]
  Cell viability, WT, Rep1: 52.6875
  Cell viability, WT, Rep2: 59.5382
  Cell viability, WT, Rep4: 47.0908
[7]; replicate 2
  Cell viability, KCNJ16 KO, Rep2: 81.0179
[7]; replicate 3
  Cell viability, KCNJ16 KO, Rep3: 91.8189
[7]; replicate 4
  Cell viability, KCNJ16 KO, Rep4: 66.4023
